Columns and labels:
[1] = system: Cells of the Jurkat cell line; test: UV-induced lipid peroxidation (flow cytometry); type: cell-based; conditions: 100 μM BHT; UVA+B irradiation
Method: Cells of the Jurkat cell line were preincubated for 45 minutes in the presence of the extract of Gynandropsis gynandra (GG) at a concentration of 0.02% (w/v of active material) or 100 μM of BHT (reference) and in the presence of the fluorescent probe 011-fluorine, specific for lipid peroxidation.
The cells were then irradiated by UVA+B and then incubated for 30 minutes in the presence of GG or BHT.
At the end of incubation, the quantity of lipid peroxides was evaluated by a flow cytometry analysis of fluorescence intensity (inversely proportional to oxidation).
(§1) The results were analyzed statistically by a Student's t-test.

Mastocytes = test: Release of histamine by mastocytes stimulated by substance P, ELISA; type: cell-based; conditions: 10 nM Calcium; 10 μM substance P, 15 minutes
Method: Mastocytes were preincubated for 30 minutes in the presence of the extract of Gynandropsis gynandra (GG) at a concentration of 0.08% (w/v of active material) or 10 Mm of calcium (reference inhibitor of histamine release).
The mastocytes were then stimulated with 10 μM of substance P for 15 minutes. At the end of incubation, the histamine released was quantified by ELISA.
as §1

interleukin 8 (IL8) = test: Production of IL8 by PMA-stimulated keratinocytes (NCTC-2544), ELISA; type: cell-based, Human; conditions: 10^−7 M Dexamethasone, 0.1 μg/ml PMA 24 hours
Method: At the end of the treatment, the quantities of interleukin 8 (IL8) and prostaglandin E2 (PGE2) secreted were measured by ELISA in the culture supernatants. The results were analyzed statistically by a Student's t-test.

prostaglandin E2 (PGE2) = test: Production of PGE2 by PMA-stimulated keratinocytes (NCTC-2544), ELISA; type: cell-based, Human; conditions: 10^−6 M Indomethacin, 0.1 μg/ml PMA 24 hours
Normal human adipocytes = test: Lipogenesis in adipocytes ([14C]-acetate incorporation); type: cell-based; conditions: 20 μM of cerulenin
Method: Normal human adipocytes were incubated for 1 hour in the presence of the extract of Gynandropsis gynandra (GG) at a concentration of 0.02% (w/v of active material) or the reference (20 μM of cerulenin). After incubation, the radioactive label [^14C]-acetate was added and the samples were incubated overnight.
At the end of incubation, the lipids were extracted and the radioactivity incorporated (corresponding to the lipogenesis) was measured by liquid scintillation.
as §1

[2] = system: Normal human keratinocytes; test: Production of ROS in keratinocytes treated with H2O2 (H2DCF-DA probe); type: cell-based; conditions: 10 μg/ml vitamin C, 24 hours, 100 μM H2O2, 20 minutes
Method: The keratinocytes were then stimulated with 100 μM of hydrogen peroxide (H2O2) for 20 minutes. The production of reactive oxygen species (ROS) was evaluated by measuring fluorescence. The results were analyzed statistically by a Student's t-test.

[3] = system: Normal human keratinocytes; test: Keratinocyte migration after artificial wound; type: cell-based; conditions: 10 ng/ml of EGF
Method: An artificial wound was prepared on a monolayer of normal human keratinocytes.
At 0, 24, 48 and 72 hours, keratinocyte migration was monitored by microphotography and was quantified by measuring the surface area of the wound.
as §1

[4] = system: Normal human epidermal melanocytes; test: Melanin production by melanocytes; type: cell-based; conditions: 10^−7 M NDP-MSH alone (stimulated control); 240 hours
Method: After incubation, melanin was extracted from the cells and was quantified by spectrophotometry.
as §1

With `Cc1cc(C(C)(C)C)c(O)c(C(C)(C)C)c1` [BHT] the “Lipid peroxides (% of irradiated control)” value [1] was 64 % of irradiated control and the “Protection (%)” value [1] was 49% p < 0.01.

`[Ca+2]` [Calcium, calcium] was tested, and the “Histamine” value (Mastocytes) was 21.8 ± 1.0 ng/mL and the “Inhibition of histamine release” value (Mastocytes) was −85% p < 0.01.

For `C[C@@H]1C[C@H]2[C@@H]3CCC4=CC(=O)C=C[C@]4(C)[C@@]3(F)[C@@H](O)C[C@]2(C)[C@@]1(O)C(=O)CO` [Dexamethasone, dexamethasone], the “IL8” value (interleukin 8 (IL8)) was 7.4 ± 0.8 ng/mL and the inhibition at 0.1 µM (interleukin 8 (IL8); Homo sapiens, NCTC-2544) was 85%.

`COc1ccc2c(c1)c(CC(=O)O)c(C)n2C(=O)c1ccc(Cl)cc1` [Indomethacin, indomethacin] was tested, and the “PGE2” value (prostaglandin E2 (PGE2)) was 0.039 ± 0.0 ng/mL and the inhibition at 1 µM (prostaglandin E2 (PGE2); Homo sapiens, NCTC-2544) was 100%.

With `C/C=C/C/C=C/CCC(=O)[C@H]1O[C@H]1C(N)=O` [cerulenin] the “Incorporation of acetate (cpm)” value (Normal human adipocytes) was 14934 ± 671 cpm and the inhibition at 20 µM (Normal human adipocytes; Homo sapiens, Adipocyte) was 55%.

With `O=C1O[C@H]([C@@H](O)CO)C(O)=C1O` [vitamin C] the “ROS (fluorescence units)” value [2] was 992.83 ± 93.96 fluorescence units and the inhibition at 10 µg/mL ([2]; Homo sapiens, Keratinocyte) was 33%.

EGF was tested, and the “Migration area (percent of wound covered)” value ([3]; 48 h) was 99 (p < 0.001) percent of wound covered and the “Migration area (percent of wound covered)” value ([3]; 72 h) was 100 (p < 0.001) percent of wound covered.

In the case of NDP-MSH, the “Melanin (μl/ml)” value [4] is reported as 27.1 ± 0.9 μl/ml and the “Stimulation of melanin production” value [4] is reported as “+108% p < 0.001”.
